Data as given in patent publication US20150133341A1, “Intra-Operative Cancer Diagnosis Based on a Hyperpolarized Marker” (ALBEDA INNOVATIONS APS, priority 2012, published 2015).

Target: T1, CE-2 in lysed human breast cancer cells (MCF-7) (Homo sapiens, UniProt O00748)
T1 construct: endogenous in cells; host or cells: MCF-7 (sonicated lysate)
T1 sequence (O00748 27-559): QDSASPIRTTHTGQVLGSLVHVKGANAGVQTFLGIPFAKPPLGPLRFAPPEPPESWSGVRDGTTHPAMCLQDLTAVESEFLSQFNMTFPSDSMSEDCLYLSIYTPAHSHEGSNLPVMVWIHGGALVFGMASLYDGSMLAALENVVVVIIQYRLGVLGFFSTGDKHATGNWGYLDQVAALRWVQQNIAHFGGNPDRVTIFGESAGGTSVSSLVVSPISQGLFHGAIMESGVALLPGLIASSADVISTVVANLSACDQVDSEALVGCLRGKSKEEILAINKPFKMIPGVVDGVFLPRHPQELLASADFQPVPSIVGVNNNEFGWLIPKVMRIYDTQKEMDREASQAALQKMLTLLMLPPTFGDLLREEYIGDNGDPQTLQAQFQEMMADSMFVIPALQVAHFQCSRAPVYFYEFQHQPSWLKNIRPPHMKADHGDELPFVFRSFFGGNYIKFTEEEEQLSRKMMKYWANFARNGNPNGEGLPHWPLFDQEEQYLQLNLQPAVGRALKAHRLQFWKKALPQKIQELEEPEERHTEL
Experiment: CE-2 activity on acetate esters in lysed MCF-7 cells, 1H NMR
Format: biochemical
Conditions: for k: 5 million lysed MCF-7 cells
Protocol: Different classes of short chain esters, fulfilling the requirements for the hyperpolarization technique (stable, soluble, low molecular weight compounds (<400 Da), were evaluated as substrates for carboxyl esterases with the aim to identify esters as similar or better substrates for carboxyl esterases than 1,3-^13C2 ethyl acetoacetate. In most human cell types, including a wide range of cancer cells and lymphocytes, the activity of carboxyl esterase is dominated by the activities of isoforms 1 and 2 (CE-1 and CE-2). To measure exclusively the hydrolysis of carboxyl esterase from the CE-1 isoform, an isolated enzyme from porcine liver was applied. To measure almost exclusively the contribution of carboxyl esterase activity from the CE-2 isoform, human breast cancer cells (MCF-7) were employed. These cells are known from literature to express CE-2 but not to express CE-1 (Byun et al, 2008, Cancer letters 266:238-48). A group of esters was investigated as substrates for CE-1, which contained different structural features. […] Also esters with large alcohol groups and small acid groups were investigated. In this group, the acid part of the molecule was always acetate and different structural properties of the alcohol were investigated. These consisted of esters of un-substituted alcohols (examples ethyl acetate and butyl acetate), esters of branched chain alcohols (examples t-butyl acetate, ethyl 3-acetoxy butanoate and 2-acetoxy propionate), esters of aromatic alcohols (example benzyl acetate), esters of diols (example ethyleneglycol diacetate), esters of triols (example triacetin). Esters of alpha-keto acids were too unstable to be investigated in this assay. Esters of larger alcohols are not water soluble and therefore not relevant substrates for the purpose of the invention. Similarly, a group of esters which contained different structural features was investigated as substrates for CE-2. CE-2 substrates are described in the literature to consist of a small acid group and a larger alcohol group. All included esters were acetate esters (i.e. esters of acetic acid) in the interest of keeping the acid moiety the smallest possible. The acetate esters measured for CE-2 activity were therefore the same as those measured in the second group of possible substrates for CE-1. The CE-2 experiments were performed with lysed breast cancer cells (MCF-7). MCF-7 cells were grown in RPMI medium with 10% FBS and antibiotics. They were at confluence harvested by trypsination and washed once with 5 ml PBS. They were spun down and resuspended in PBS to a concentration of 20 mill. cells/ml. The cells were hereafter sonicated on ice (50% amplitude, 1 min, 3 sec pulse). 250 μl sonicated cell suspension was mixed with 250 μl 400 mM phosphate buffer pH 7.3. […] The substrate was added (50 μl, 60 mM) and the tube turned for mixing before it was inserted into the spectrometer. An initial spectrum was acquired and the sample was hereafter placed at 37° C. for 1 hour in a water bath. The sample was again inserted into the magnet and a second spectrum was recorded. The data was analysed with MNOVA software and measured as percentage conversion of substrate calculated to account for the amount of substrate converted over 60 min. The numbers are given in μmol/hour.

| k (37° C., 1 hour) | hydrolysis by CE-2, in words (lysed MCF-7 cells) | hydrolysis by CE-2, in words (lysed MCF-7 cells, listed as benzyl acetate) | Structure (SMILES) | k (μmol/min), acetate ester (hydrolysis of the acetate ester function, lysed MCF-7 cells, 37° C., 1 hour) |
| --- | --- | --- | --- | --- |
| 1.05 µmol/min | hydrolysed particularly fast | the best | CC(=O)OCc1ccccc1 [Benzyl acetate] | – |
| 0.27 µmol/min | hydrolysed to a similar extent | – | CC(=O)OCC(COC(C)=O)OC(C)=O [Tri-acetin] | – |

| Structure (SMILES) | k (37° C., 1 hour) | hydrolysis by CE-2, in words (lysed MCF-7 cells) | hydrolysis by CE-2, in words (lysed MCF-7 cells, listed as benzyl acetate) | k (μmol/min), acetate ester (hydrolysis of the acetate ester function, lysed MCF-7 cells, 37° C., 1 hour) |
| --- | --- | --- | --- | --- |
| CCOC(=O)CC(C)OC(C)=O (stereo not shown) [ethyl 3-acetoxy butanoate] | – | hydrolysed to a similar extent | – | 0.18 µmol/min |
